Values quoted from earlier work, collected in patent US10196337B2, “Processes for the preparation of hydroxylated cyclohexyl compounds” (priority 2016, dated 2019).
pIC50: −log10 of the molar value.

Tested on: A2780 ovarian cancer cell line
Details: compounds isolated from bark extract of Pleiogynium timorense, literature ref. 1, read-out: IC50 against the A2780 ovarian cancer cell line

Row | Compound | pIC50
1 | CCCCCCCC/C=C\CCCCCCC[C@]1(O)C(=O)C=C[C@H](O)[C@H]1O [compound 1, pleiogenone A] | 6.10
2 | pleiogenone B [compound 2] | 6.15
3 | pleiogenone C [compound 3] | 6.10
